Experimental data reported in patent publication US8409859B2, “Differentiation of non-embryonic stem cells to cells having a pancreatic phenotype” (Regents of the University of Minnesota, priority 2005, dated 2013).

Experiments:
rat MAPCs = assay: Cytokine mediated differentiation of rat MAPCs, Q-RT-PCR and cell survival; assay type: cell-based; conditions: activin-A, BMP4 and cyclopamine or anti-SHH Ab withdrawn after d6, cells then maintained with the factor
Experimental: For Q-RT-PCR reactions described herein, the primer sequences are presented in Tables 3-5 and the following protocols were used: RNA was extracted from the cells with the aid of the RNeasy Mini Kit (Qiagen; Valencia Calif.), followed by a DNase Treatment with DNA-Free™ (Ambion, Austin, Tex.). The RNA was reverse transcribed with TaqMan (Applied Biosystems, Foster City, Calif.; Step 1 (Incubation): 25° C., 10 min; Step 2 (RT): 48° C., 30 min; Step 3 (RT Inactivation): 95° C., 10 min).
Following reverse transcription, Quantitative Real Time PCR (Q-RT-PCR) was performed as follows: Step 1: 50° C., 2 min (Incubation); Step 2: 95° C., 10 min (Taq activation); Step 3: 95° C., 15 sec (Denaturation) followed by 60° C., 1 min (Extension) and repeat for 40 cycles; Step 4: 95° C., 15 sec (Dissociation); Step 5: 60° C., 20 sec (Melting curve); Step 6: 95° C., 15 sec.
In an initial series of studies, the effect of cell density (about 10^4-10^5 cells/cm^2), ECM component (fibronectin, collagen, matrigel) and different concentrations (10-100 ng/mL) of bFGF (10-100 ng/mL), FGF2 (10-100 ng/mL), Activin A (e.g., about 10 ng/mL to about 100 ng/mL), BMP4 (e.g., about 10 ng/mL to about 50 ng/mL), retinoic acid (about 10^−6M), EGF (e.g., about 10 to about 100 ng/mL), FGF10 (e.g., about 50 to about 150 ng/mL, including about 100 ng/mL), HGF (e.g., about 10 to about 100 ng/mL), GDF11 (e.g., about 50 to abut 150 ng/mL), cyclopamine (e.g., about 10 μM), anti-SHH antibody (Ab; e.g., about 10 μg/mL), nicotinamide (e.g., 5 μM to about 50 μM, including about 10 μM), exendin 4 (about 5 nM to about 50 nM, including about 10 nM), betacellulin (e.g., about 50 to abut 150 ng/mL) alone or in combinations of 2 or 3 and in different temporal sequences, on the induction of transcription factors, insulin, glucagon and somatostatin expression levels after 6, 12 and 18 days using Q-RT-PCR was determined.
Subsequent addition of factors believed to play a role in further proliferation and differentiation from pancreas-committed cells to mature endocrine pancreas, including EGF (e.g., about 50 ng/mL), HGF (e.g., about 50 ng/mL) and FGF10 (e.g., about 100 ng/mL), either alone or in combination was tested. […] Further optimization was obtained by adjusting the duration of the different steps along the differentiation course, as well addition of β-cellulin (50 ng/mL).

human MAPCs = conditions: about 10 ng/mL LIF; cited from earlier work
murine MAPCs = conditions: about 10 ng/mL LIF added to PDGF-BB and EGF culture; cited from earlier work

Substance | cell survival (rat MAPCs) | short-term cell growth (cell doubling time till 25 cell doublings, Oct 4 expression) (human MAPCs) | cell growth (murine MAPCs)
EGF: epidermal growth factor | significantly better | – | –
HGF: mitogenic protein used at about 50 ng/mL | significantly better | – | –
LIF: leukemia inhibitory factor, culture supplement | – | did not affect short-term cell growth | significantly enhanced cell growth
